# Measurements taken from patent US10966998B2, “Cancer therapy via a combination of epigenetic modulation and immune modulation” (The Johns Hopkins University, priority 2013, dated 2021).
# “Also recorded” adds a separate entry of the source.
# Key:
# [1] = test system: NSCLC cell lines; test: Genome-wide expression (Agilent arrays, GSEA) and DNA methylation of cell lines treated with AZA; assay type: cell-based, human
# Text: For in vitro DNA methylation values, DNA was extracted from cell lines that were either untreated or treated with AZA at day 3, at the end of treatment, and day 10 (7 days post end of treatment) and analyzed by the Illumina Infinium HumanMethylation450 BeadChips (Illumina, Inc., San Diego, Calif., USA). Raw data were imported into R using the “methylumi” package from Bioconductor (22). Data points for probes with detection p-value >0.05 were masked as NA. Δ beta values (Δ beta value=beta value AZA−beta value Mock) were calculated and used to make boxplots. Heat maps were made similarly like those for the TCGA data using informative probes defined by the TCGA data.
# For in vitro RNA extracted from cell lines treated with AZA, analyses were done at exactly the same time points as for DNA methylation above. Analyses from wild type colon cancer, HCT116 cells, and genetic knockout counterparts for DNA methyltransferases (DKO cells) were also performed. Expression microarrays were carried out using Agilent Human 4×44K expression arrays (Agilent Technologies, Santa Clara, Calif., USA, Cat#: G4112F). Within-array and between-array normalization was performed using Loess and Aquantile normalization, respectively (23). Median of the M values (M value Expression=log 2 [AZA/Mock] OR log 2 [DKO/HCT116]) was determined for multiple probes associated with the same gene.
# For each of the eight lung cancer cell lines (H838, H1299, H358, H1270, A549, H460, HCC4006, HCC827) a ranked gene list was created (genes were sorted by decreasing M value). These eight ranked gene lists were entered in the GSEA tool (51-52) and the enrichment of both Kegg (53) and Reactome (54) pathways in these lists was calculated (default parameters). A gene set was selected when it was enriched in any of the eight cell lines (p value <0.05 and false discovery rate <0.25). The normalized enrichment scores (NES) for the gene sets in each cell line were used to create the heat maps. When a certain gene set was not significant in a cell line, it was assigned a NES of 0.
# Expression and methylation data were analyzed to find genes whose re-expression was linked to demethylation after AZA treatment. Genes were selected based on a set of cut-offs, both for the methylation and expression values: A gene was considered to be re-expressed when at day 3 or day 10 the median M value of all the probes linked to that gene was higher than 0.5. Infinium probes were analyzed separately at their distances from the transcription start site for each gene examined. […] Only probes that were associated with a CpG island and that were located within 1000 bp upstream and 1000 bp downstream of the transcription start site were used in the analyses. The probes that passed these filters were validated using the TCGA methylation and expression data (see the definition of informative probes in the “Infinium DNA Methylation Data” section of Methods). […] To better understand the biological implications of the re-expressed genes, the gene lists were searched for transcription factors. Two human transcription factor lists obtained from Ravasi et al. (25) and Vaquerizas et al. (26, 27) were combined and the resulting list was matched to the lists of demethylated and re-expressed genes.
# (§1) A previously validated pre-clinical model was employed to examine how AZA alters expression of key pathways in NSCLC cell lines.(29) Cells were treated in vitro with 500 nM AZA for 72 hours then harvested immediately after withdrawal of drug and again one week later for genome wide methylation and expression studies.
# [2] = test system: cell surface PD-L1 in NSCLC lines H838 and H1299; test: Flow cytometry (FACS) of cell surface proteins after AZA treatment; assay type: cell-based, human; settings: day 10
# Experimental: Frozen cells were thawed in 37 degrees Celsius and washed once with flow-washing buffer. Aliquots of single-cell suspension were then stained with fluorescent-labeled antibodies for 15 mins at room temperature. Each sample was washed twice and re-suspended in flow-washing buffer and analyzed by FACSCalibur. The following antibodies were used: CD274 (12-5983-42 Ebiosciences), HLA abc(12-9983-42 Ebiosciences), CD276(331606 Biolegend), CD119(558934 BD), B2 microblogumin(551337BD), CD58(555921BD). Changes between AZA treated and mock cells were calculated using mean fluorescence intensities (MFI) and the formula log 2([(MFIantibody, treated)−(MFIisotype, treated)]/[(MFIantibody, mock)−(MFIisotype, mock)]).
# as §1
# [3] = test system: epithelial cell lines and AML cell lines; test: Gene expression in tumor-derived cell lines with AZA treatment (FIG. 2); assay type: cell-based
smiles,measurement,setting,value
"Nc1ncn([C@@H]2O[C@H](CO)[C@@H](O)[C@H]2O)c(=O)n1 [AZA, 5-azacytidine]",immune-related pathways by Gene Set Enrichment Analysis,"[1]; 500 nM AZA for 72 hours, NSCLC cell lines",up-regulation of multiple immune-related pathways
same,IRAK3 expression,[1]; H838 cells,up-regulated
same,number of genes 4-fold or more up-regulated,"[1]; H2170 cells, day 10",114 genes
same,IRF7 expression increase,[1]; LUSC cell line H2170,9 fold
same,CD80 and CD86 expression,[1]; NSCLC cell lines,not altered
same,"number of genes with high baseline promoter CpG island methylation, demethylation of 25% or more and expression increased 1.4-fold or greater",[1]; NSCLC cell lines,Approximately 300 genes
same,IFI27 expression,[1]; NSCLC lines,up-regulated
same,MAVS (antiapoptotic gene) expression,[1]; NSCLC lines,down-regulation
same,interferon-γ receptor (IFNGR1) and STAT gene (incl. STAT1) expression,[1]; NSCLC lines,up-regulation
same,"transcripts of HLA Class I antigens, B2M, CD58, TAP1, PMSB9 and PSMB8",[1]; NSCLC lines,upregulates
same,γ-interferon expression,[1]; NSCLC lines,not induced
same,antiapoptotic genes BCL2 and BIRC5 (SURVIVIN) expression,[1]; especially cell line H838,decreases
same,autophagy gene expression,[1]; especially cell line H838,increases
same,PD-L1 transcript level,[1]; several NSCLC cell lines,up-regulated
same,cell surface PD-L1 protein level,[2],up-regulated; also recorded: increased
same,gene expression changes with AZA treatment,[3],pro-inflammatory changes
